Measurements taken from the supplement of paper PMC11208160.

Experiment: recombinant UMI read abundance after kanamycin selection (control-corrected) (log10(CPM+1)); higher = more efficient recombination; extreme values may be limits of the assay; sequences stand for … in AGTGCAGAGAAAATCGGCCAGTTTTCTCTGCCTGCAGTCCGCATGCCGTGGGACCCCTTGGGTTCTAACCTGTTGCCTAGATTTATGCAGCGGACTGCCTTTCTCCCAAAGTGATAAACCGG…AGGTTGGTTTCACT; site = the 11-nt donor
Summary of the method: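 Counts of recombinant UMIs were reported as log10(CPM+1). Before that, they were converted to CPM, averaged over replicates and scaled using control-derived factors. They came from PCR across the donor–target junction after Escherichia coli carrying the pair library and target plasmid was plated on IPTG (0.07 mM) plus kanamycin, or unselected, in two replicates each.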
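Also: IS621 bridge recombinase in Escherichia coli cells against a fixed T5 target plasmid.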

With “ATCTGTACATGGACCGGTTTTCCCGGTAATCCGTATTTGAC (site ATCTGTACTGT)” as the sequence, how does the “recombinant UMI read abundance (log10)” value read?
The value was 1.31.

With “ATCTGTACATGGACCGGTTTTCCCGGTAATCCGTATTTGAC (site ATCTTTACTGT)” as the sequence, how does the “recombinant UMI read abundance (log10)” value read?
Its value is 0.

With “ATCTGTCCATGGACCGGTTTTCCCGGTAATCCGTATTTGAT (site ATCTGTCCTAT)” as the sequence, how does the “recombinant UMI read abundance (log10)” value read?
The value was 0.0326.

Which “recombinant UMI read abundance (log10)” value does the source give for “ATGAAGGCATGGACCGGTTTTCCCGGTAATCCGTATTTGCA (site AGGAAGACTTG)” here?
The value was 0.763.

Which “recombinant UMI read abundance (log10)” value does the source give for “ATGAAGGCATGGACCGGTTTTCCCGGTAATCCGTATTTGCA (site ATGAAGGCTTG)” here?
Its value is 2.91.

For “ATGACACCATGGACCGGTTTTCCCGGTAATCCGTATTTGGT (site ATGACACCTAC)”, which “recombinant UMI read abundance (log10)” value is on record?
Its value is 0.0397.

Which “recombinant UMI read abundance (log10)” value does the source give for “ATGATCCCATGGACCGGTTTTCCCGGTAATCCGTATTTGCC (site ATGATCCCTGG)” here?
Its value is 0.

With “ATGCACGCATGGACCGGTTTTCCCGGTAATCCGTATTTGGG (site AAGCACGCTCC)” as the sequence, how does the “recombinant UMI read abundance (log10)” value read?
The value was 0.017.

For “ATGCACGCATGGACCGGTTTTCCCGGTAATCCGTATTTGGG (site ACGCACGCTCC)”, which “recombinant UMI read abundance (log10)” value is on record?
The value was 0.0179.

With “ATGCACGCATGGACCGGTTTTCCCGGTAATCCGTATTTGGG (site AGGCACGCTCC)” as the sequence, how does the “recombinant UMI read abundance (log10)” value read?
The value was 0.0274.

For “ATGCACGCATGGACCGGTTTTCCCGGTAATCCGTATTTGGG (site ATGCACGCTCC)”, which “recombinant UMI read abundance (log10)” value is on record?
Its value is 0.239.

Which “recombinant UMI read abundance (log10)” value does the source give for “ATGCAGCCATGGACCGGTTTTCCCGGTAATCCGTATTTGAG (site ATGCAGCCTCT)” here?
The value was 0.00247.

For “ATGCCCGCATGGACCGGTTTTCCCGGTAATCCGTATTTGCA (site ATGCCCGCTTG)”, which “recombinant UMI read abundance (log10)” value is on record?
The value was 2.01.

With “ATGCCGACATGGACCGGTTTTCCCGGTAATCCGTATTTGCA (site ATGCCGACTTG)” as the sequence, how does the “recombinant UMI read abundance (log10)” value read?
The value was 1.91.

Which “recombinant UMI read abundance (log10)” value does the source give for “ATGCGAGCATGGACCGGTTTTCCCGGTAATCCGTATTTGCT (site ATGCGAGCTAG)” here?
The value was 2.5.

With “ATGCTTGCATGGACCGGTTTTCCCGGTAATCCGTATTTGCT (site ATGCTTGCTAG)” as the sequence, how does the “recombinant UMI read abundance (log10)” value read?
The value was 0.679.

With “ATGGAAACATGGACCGGTTTTCCCGGTAATCCGTATTTGCA (site ATGGAAACTTG)” as the sequence, how does the “recombinant UMI read abundance (log10)” value read?
The value was 2.32.

Which “recombinant UMI read abundance (log10)” value does the source give for “ATGGAAACATGGACCGGTTTTCCCGGTAATCCGTATTTGCA (site CTGGAAACTTG)” here?
The value was 1.6.

Which “recombinant UMI read abundance (log10)” value does the source give for “ATGGAAACATGGACCGGTTTTCCCGGTAATCCGTATTTGCA (site GTGGAAACTTG)” here?
Its value is 0.

Which “recombinant UMI read abundance (log10)” value does the source give for “ATGGAAACATGGACCGGTTTTCCCGGTAATCCGTATTTGCA (site TTGGAAACTTG)” here?
Its value is 0.684.

Which “recombinant UMI read abundance (log10)” value does the source give for “ATGGCATCATGGACCGGTTTTCCCGGTAATCCGTATTTGCG (site ATGGCATCTCG)” here?
The value was 2.06.

For “ATGGCATCATGGACCGGTTTTCCCGGTAATCCGTATTTGCT (site ATGGCATCTAG)”, which “recombinant UMI read abundance (log10)” value is on record?
The value was 1.83.

Which “recombinant UMI read abundance (log10)” value does the source give for “ATGGCCGCATGGACCGGTTTTCCCGGTAATCCGTATTTGGC (site ATGGCCGCTGC)” here?
The value was 2.53.

For “ATGGTCCCATGGACCGGTTTTCCCGGTAATCCGTATTTGAC (site ATGGTCCCTGT)”, which “recombinant UMI read abundance (log10)” value is on record?
The value was 1.87.

Which “recombinant UMI read abundance (log10)” value does the source give for “ATGGTCGCATGGACCGGTTTTCCCGGTAATCCGTATTTGAC (site ATGGTCGCTGT)” here?
Its value is 3.13.

Which “recombinant UMI read abundance (log10)” value does the source give for “ATGTACACATGGACCGGTTTTCCCGGTAATCCGTATTTGAG (site ATGTACACTCT)” here?
The value was 1.6.

Which “recombinant UMI read abundance (log10)” value does the source give for “ATGTAGGCATGGACCGGTTTTCCCGGTAATCCGTATTTGGT (site ATGTAGGCTAC)” here?
The value was 1.27.

With “ATGTAGGCATGGACCGGTTTTCCCGGTAATCCGTATTTGGT (site ATGTAGGCTCC)” as the sequence, how does the “recombinant UMI read abundance (log10)” value read?
Its value is 0.0125.

For “ATGTAGGCATGGACCGGTTTTCCCGGTAATCCGTATTTGGT (site ATGTAGGCTGC)”, which “recombinant UMI read abundance (log10)” value is on record?
The value was 1.73.

For “ATGTAGGCATGGACCGGTTTTCCCGGTAATCCGTATTTGGT (site ATGTAGGCTTC)”, which “recombinant UMI read abundance (log10)” value is on record?
The value was 0.0176.

With “ATGTCGCCATGGACCGGTTTTCCCGGTAATCCGTATTTGCC (site ATGTCGCCTGG)” as the sequence, how does the “recombinant UMI read abundance (log10)” value read?
Its value is 0.

With “ATGTCGGCATGGACCGGTTTTCCCGGTAATCCGTATTTGTC (site ATGTCGGCTGA)” as the sequence, how does the “recombinant UMI read abundance (log10)” value read?
The value was 2.23.
